This note sets out measurements from patent publication US20030157072A1, “Nusap, a novel gene encoding a tissue-specific nuclear protein, useful as a diagnostic tool and therapeutic agent” (priority 2003, published 2003).

Assay [1] relates to mouse osteoblastic MC3T3-E1 cells. The assay can be described thus: [3H]-thymidine incorporation, proliferation of MC3T3-E1 cells. In kind it is cell-based. Particulars: varying doses, 24 and 48 h, versus vehicle. The procedure:
(a) The proliferation of MC3T3-E1 cells was analyzed after treatment for 24 and 48 h with varying doses of 1,25(OH)2D3 by monitoring [^3H]-thymidine incorporation. Data represent mean±SD of six replicates of a representative experiment. Values of vehicle (ethanol) treated cells were taken as 100%. (*P<0.001; versus vehicle, t test) All culture reagents, unless otherwise mentioned, were obtained from GIBCO BRL (Life Technologies, Grand Island, N.Y.). Murine osteoblast-like MC3T3-E1 cells (Sudo et al. (1983). J. Cell Biol. 96:191-198) were purchased from Riken Cell Bank (H. Kodama, Japan), and maintained in αMEM supplemented with 10% heat-inactivated FCS and penicillin-streptomycin (100 U/ml and […], respectively). Sub-confluent MC3T3-E1 cell cultures are defined to be in the proliferation state, while confluent and mineralising cells have entered the differentiation stage. COS-1 and NIH3T3 cells (American Type Culture Collection, Manassas, Va.) were cultured respectively in Dulbecco's modified eagle medium (hereinafter DME) and DME-F12, plus 10% heat-inactivated FCS. For NIH3T3 cells, the medium was supplemented with glutamax (2 mM) and glucose (4.5 g/l). Cultures were grown at 37° C. in a humidified atmosphere containing 5% CO2 in air. […] Significant effects were already observed after 24 hours and this inhibition became more pronounced with increasing time. […]

For the next assay, the system named is nusap gene expression. The assay can be described thus: Northern analysis of nusap gene expression in MC3T3-E1 cells. Format: cell-based, mouse. The procedure: FIG. 2 represents a Northern blot analysis showing nusap gene expression in sub-confluent cultures of MC3T3-E1 cells after treatment with vehicle or 1,25(OH)2D3 (10^−8 M) for 24 hours. The size (kb) of the three transcripts is indicated.
(§1) Northern blot analysis of nusap expression in hydroxyurea treated (1 mM) MC3T3-E1 cells. Cells were harvested at the indicated time points (minutes) after treatment. The different cell cycle phases were assigned based on the RNA levels of histone H4, a S-phase marker. The blots were hybridized with the following cDNA probes: human histone H4, pFO002; and a 0.8 kb NuSAP BglII/AspI restriction fragment. The 18S cDNA probe was used as a control to assess equal loading.
(§2) Growth arrest of MC3T3-E1 cells by serum starvation was accomplished by changing complete medium (10% FCS) to medium containing 0.1% FCS in subconfluent cultures. The quiescent cells were released from growth arrest by adding complete medium (10% FCS), whereafter cells were harvested at the indicated time points.
(§3) Total cellular RNA was extracted from cell cultures using TriZol LS. Foetal mice and soft tissues from adult mice (C57BL/6; 8 wk old) were directly homogenized in TriZol (GIBCO BRL), while femurs and tibias were ground to a fine powder prior to homogenization, followed by total cellular RNA extraction. […]

Assay [2] concerns microtubules (α-tubulin) / GFP-tagged NuSAP. The assay can be described thus: Immunofluorescence localization of GFP-tagged NuSAP in transfected COS-1 cells. To be noted: for distribution of NuSAP in the nucleoli during interphase: COS-1 cells in interphase; for distribution of NuSAP and α-tubulin in mitotic cells: mitotic COS-1 cells, nocodazole 10 μM for 1 hour, taxol 5 μM for 1 hour.

The test system of assay [3] is DNA synthesis (BrdUrd incorporation). Put plainly: BrdUrd immunostaining in transfected COS-1 cells. Format: cell-based. To be noted: 20 μg/ml for several hours. As for the experimental part:
[…] […] C is the merger of A and B. In some cells, BrdUrd incorporation is distinctly aggregated (E), and these sites overlap with NuSAP-GFP (D) and F (which is the merger of D and E).
Alternatively, cells were fixed and permeabilized in 0.4% glutaraldehyde/0.5% Triton X100/PBS for 15 minutes at room temperature. After incubation in 0.5 mg NaBH4/ml PBS (10 minutes), and blocking in 5% BSA/PBS (10 minutes), cells were incubated with primary antibodies for 1 h. Cells were washed and after incubation with 50% normal serum (Dako) (10 minutes), cells were incubated with secondary antibodies conjugated to Alexa-488 or -546 dye (Molecular Probes) (1 hour) and finally mounted using Dako mounting medium. Antibodies and normal serum were diluted in 0.5% Tween20/PBS. Analysis was done on a Nikon inverted microscope Diaphot 300 (Plan Apo 60/1.40 oil) connected to a Bio-Rad MRC1024 confocal microscope and images were captured by LaserSharp (version 3.2) and processed using Adobe Photoshop 5.5 (Adobe Systems Inc., San Jose Calif.). The images showing a-tubulin localization were taken using a Leitz DM microscope and were recorded using a cooled charge-coupled device camera (Photometrics Inc., Tucson, Ariz.) and IP-Lab software. […]

The subject of assay [4] is histone H4 gene expression. The assay can be described thus: Northern analysis of histone H4 RNA levels in MC3T3-E1 cells. In kind it is cell-based, mouse. To be noted: 1 mM, within 45 minutes of treatment. The procedure:
as §1, §2, §3

Turning to `C=C1/C(=C\C=C2/CCC[C@]3(C)[C@@H]([C@H](C)CCCC(C)(C)O)CC[C@@H]23)C[C@@H](O)C[C@@H]1O` [1α,25(OH)2D3, 1α,25-dihydroxyvitamin D3], the “proliferation measured by [3H]-thymidine incorporation” value in assay [1] is on record as “inhibited the proliferation of these cells”. Moreover, in the assay on nusap gene expression (sub-confluent MC3T3-E1 cells, 10^-8 M for 24 hours versus vehicle), the “nusap gene expression (Northern analysis)” value is recorded as “inhibition of nusap gene expression”. For `CC(=O)O[C@H]1C(=O)[C@@]2(C)[C@H]([C@H](OC(=O)c3ccccc3)[C@]3(O)C[C@H](OC(=O)[C@H](O)[C@@H](NC(=O)c4ccccc4)c4ccccc4)C(C)=C1C3(C)C)[C@]1(OC(C)=O)CO[C@@H]1C[C@@H]2O` [taxol], in assay [2], the “distribution of NuSAP in the nucleoli during interphase” value is “Neither nocodazole nor taxol treatment affected”; the “distribution of NuSAP and α-tubulin in mitotic cells” value is given as “resulted in NuSAPs translocation to these structures”. For `C[C@@]1(CO)[C@H](O)CC[C@@]2(C)[C@H]1CC[C@H]1C[C@@H]3C[C@@]12CC[C@]3(O)CO` [aphidicolin], the “immunostaining for BrdUrd” value in assay [3] is given as “loss of immunostaining for BrdUrd”. With `NC(=O)NO` [hydroxyurea], the “nusap gene expression (RNA level)” value in the assay on nusap gene expression (MC3T3-E1 cells, 1 mM, within 45 minutes of treatment) is “markedly down-regulated”. Moreover, the “histone H4 RNA levels” value in assay [4] was “undetectable”. On to `COC(=O)Nc1nc2ccc(C(=O)c3cccs3)cc2[nH]1` [nocodazole], for which, in assay [2], the “distribution of NuSAP in the nucleoli during interphase” value is “Neither nocodazole nor taxol treatment affected”; the “distribution of NuSAP and α-tubulin in mitotic cells” value was “NuSAP and α-tubulin redistributed throughout the cell”.
